Experimental data: US8067442B2, “Heterocyclic antiviral compounds” (Roche Palo Alto LLC, priority 2008, dated 2011)

Tests used:
[1] = biological target: T1, HCV polymerase (NS5B570n-Con1) (Hepatitis C virus genotype 1b, UniProt Q9WMX2); assay: biochemical; set-up: species or system HCV Con1 strain
T1 construct: a 21 amino acid C-terminal deletion of full-length HCV polymerase; made in house; host or cells: E. coli BL21(DE3) pLysS, plasmid pET17b

in vitro = settings: human
[2] = tested on: HCV replicon cells (2209-23), genotype 1b replicon in human hepatoma Huh7 cells; assay: HCV replicon assay (Renilla luciferase reporter); assay type: cell-based, HCV genotype 1b; settings: Hepatitis C virus, Huh-7, 72 h; 2209-23 cells, three days incubation
HCV = settings: cited from earlier work

SMILES: CC(C)(C)c1cc(-c2ccc[nH]c2=O)cc2c(-c3cccc(C(N)=O)c3)coc12 [Compound I-78, 3-[7-tert-Butyl-5-(2-oxo-1,2-dihydro-pyridin-3-yl)-benzofuran-3-yl]-benzamide]
- melting point: 190 to 193 °C
- IC50 [1]: 9 nM
- CC50 (in vitro): 12400 nM
- IC50 [2]: 78 nM

SMILES: CC(C)(C)c1cc(-c2ccc[nH]c2=O)cc2c(-c3ccc(N)cc3)coc12 [Compound I-86]
- melting point: 248 to 250 °C
- CC50 (in vitro): 29200 nM
- IC50 [2]: 346 nM

SMILES: CC(C)(C)c1cc(-c2ccc[nH]c2=O)cc2c(C(=O)N3CCC[C@H](CNS(C)(=O)=O)C3)coc12 [Compound I-100]
- IC50 [1]: 8 nM
- IC50 [2]: 14 nM

SMILES: CN(C[C@H]1CCN(C(=O)c2coc3c(C(C)(C)C)cc(-c4ccc[nH]c4=O)cc23)C1)S(C)(=O)=O [Compound I-105, N-{(S)-1-[7-tert-Butyl-5-(2-oxo-1,2-dihydro-pyridin-3-yl)-benzofuran-3-carbonyl]-pyrrolidin-3-ylmethyl}-N-methyl-methanesulfonamide]
- melting point: 155 to 157 °C
- IC50 [1]: 25 nM

SMILES: CCS(=O)(=O)NC[C@H]1CCN(C(=O)c2coc3c(C(C)(C)C)cc(-c4ccc[nH]c4=O)cc23)C1 [Compound I-106]
- melting point: 240 to 242 °C
- IC50 [1]: 17 nM

SMILES: CC(C)(C)c1cc(-c2ccc[nH]c2=O)cc2c(C(=O)N3CC[C@H](CNS(=O)(=O)C4CC4)C3)coc12 [Compound I-107]
- melting point: 158 to 160 °C
- IC50 [1]: 17 nM

SMILES: CC(C)S(=O)(=O)NC[C@H]1CCN(C(=O)c2coc3c(C(C)(C)C)cc(-c4ccc[nH]c4=O)cc23)C1 [Compound I-108]
- melting point: 163 to 165 °C
- IC50 [1]: 25 nM

SMILES: Cn1cc(C(=O)N2CC[C@H](CNS(C)(=O)=O)C2)c2cc(-c3ccc[nH]c3=O)cc(C(C)(C)C)c21 [Compound I-111, N-{(S)-1-[7-tert-Butyl-1-methyl-5-(2-oxo-1,2-dihydro-pyridin-3-yl)-1H-indole-3-carbonyl]-pyrrolidin-3-ylmethyl}-methanesulfonamide]
- melting point: 168 to 170 °C
- IC50 [1]: 8 nM

SMILES: Cn1cc(C(N)=O)c2cc(-c3ccc[nH]c3=O)cc(C(C)(C)C)c21 [Compound I-112]
- melting point: 232 to 234 °C
- IC50 [1]: 778 nM

SMILES: NC(=O)c1ncn([C@@H]2O[C@H](CO)[C@@H](O)[C@H]2O)n1 [ribavirin, 1-((2R,3R,4S,5R)-3,4-Dihydroxy-5-hydroxymethyl-tetrahydro-furan-2-yl)-1H-[1,2,4]triazole-3-carboxylic acid amide]
- serum levels of HCV-RNA (HCV; monotherapy / sole treatment): does not lower
- patients in whom serum amino transferase levels are reduced to normal (HCV; monotherapy): 40%
